# Source: ChEMBL document CHEMBL3885881, “DrugMatrix”
# Organism: Rattus norvegicus
# Experiment: DrugMatrix - Regimen: Daily Repeat
# Type: toxicity, organism-based, Sprague-Dawley
# Set-up: regimen Daily Repeat, gender Male, age 6-8 weeks
# Settings: in vivo, po, route oral GAVAGE, vehicle 100 % WATER; for ABSOLUTE BASOPHIL / ABSOLUTE EOSINOPHIL / ABSOLUTE LYMPHOCYTE / ABSOLUTE MONOCYTE / ABSOLUTE SEGMENTED NEUTROPHIL / BASOPHIL / EOSINOPHIL / ERYTHROCYTE COUNT / HEMATOCRIT / HEMOGLOBIN / LEUKOCYTE COUNT / LYMPHOCYTE / MEAN CORPUSCULAR HEMOGLOBIN / MEAN CORPUSCULAR HEMOGLOBIN CONCENTRATION / MEAN CORPUSCULAR VOLUME / MONOCYTE / NEUTROPHIL / NUCLEATED RED BLOOD CELLS / PLATELET COUNT: tissue Blood; for ALANINE AMINOTRANSFERASE / ALBUMIN / ALKALINE PHOSPHATASE / ASPARTATE AMINOTRANSFERASE / BLOOD UREA NITROGEN / CARBON DIOXIDE / CHLORIDE / CHOLESTEROL / CREATINE PHOSPHOKINASE / CREATININE / GLUCOSE / LACTATE DEHYDROGENASE / LIPASE / PHOSPHORUS / POTASSIUM / SODIUM / TOTAL BILIRUBIN / TOTAL PROTEIN / URIC ACID: tissue Plasma
# [1] = 0 mg/kg, 72 h, dose level Control, time 3 day
# [2] = 0 mg/kg, 120 h, dose level Control, time 5 day
# [3] = 50 mg/kg, 72 h, dose level Low, time 3 day
# [4] = 50 mg/kg, 120 h, dose level Low, time 5 day
smiles,measurement,setting,value
CC[C@H]1OC(=O)[C@H](C)[C@@H](O[C@H]2C[C@@](C)(OC)[C@@H](O)[C@H](C)O2)[C@H](C)[C@@H](O[C@@H]2O[C@H](C)C[C@H](N(C)C)[C@H]2O)[C@](C)(O)C[C@@H](C)CN(C)[C@H](C)[C@@H](O)[C@]1(C)O [AZITHROMYCIN],ABSOLUTE BASOPHIL,[1],0 CELLS/uL
same,ABSOLUTE EOSINOPHIL,[1],33.67 CELLS/uL
same,ABSOLUTE LYMPHOCYTE,[1],11257.17 CELLS/uL
same,ABSOLUTE MONOCYTE,[1],72.17 CELLS/uL
same,ABSOLUTE SEGMENTED NEUTROPHIL,[1],1220.33 CELLS/uL
same,BASOPHIL,[1],0%
same,EOSINOPHIL,[1],0.33%
same,ERYTHROCYTE COUNT,[1],5 x10E6/uL
same,HEMATOCRIT,[1],32.62%
same,HEMOGLOBIN,[1],12.83 G/DL
same,LEUKOCYTE COUNT,[1],12.58 x10E3/uL
same,LYMPHOCYTE,[1],89%
same,MEAN CORPUSCULAR HEMOGLOBIN,[1],25.67 pg
same,MEAN CORPUSCULAR HEMOGLOBIN CONCENTRATION,[1],39.35 G/DL
same,MEAN CORPUSCULAR VOLUME,[1],65.23 fL
same,MONOCYTE,[1],0.67%
same,NEUTROPHIL,[1],10%
same,NUCLEATED RED BLOOD CELLS,[1],0 /100WBC
same,PLATELET COUNT,[1],1162.5 x10E3/uL
same,ALANINE AMINOTRANSFERASE,[1],45.33 u/L
same,ALBUMIN,[1],3.95 G/DL
same,ALKALINE PHOSPHATASE,[1],356.17 u/L
same,ASPARTATE AMINOTRANSFERASE,[1],81 u/L
same,BLOOD UREA NITROGEN,[1],11 mg/dL
same,CARBON DIOXIDE,[1],29.83 mmol/L
same,CHLORIDE,[1],97.8 MEQ/L
same,CHOLESTEROL,[1],65.17 mg/dL
same,CREATINE PHOSPHOKINASE,[1],211.33 u/L
same,CREATININE,[1],0.11 mg/dL
same,GLUCOSE,[1],164.67 mg/dL
same,LACTATE DEHYDROGENASE,[1],143.17 u/L
same,LIPASE,[1],10.17 u/L
same,PHOSPHORUS,[1],10.88 mg/dL
same,POTASSIUM,[1],6.08 MEQ/L
same,SODIUM,[1],141.54 MEQ/L
same,TOTAL BILIRUBIN,[1],0.23 mg/dL
same,TOTAL PROTEIN,[1],5.65 G/DL
same,URIC ACID,[1],1 mg/dL
same,ABSOLUTE BASOPHIL,[2],0 CELLS/uL
same,ABSOLUTE EOSINOPHIL,[2],48.67 CELLS/uL
same,ABSOLUTE LYMPHOCYTE,[2],9267.83 CELLS/uL
same,ABSOLUTE MONOCYTE,[2],194.33 CELLS/uL
same,ABSOLUTE SEGMENTED NEUTROPHIL,[2],572.5 CELLS/uL
same,BASOPHIL,[2],0%
same,EOSINOPHIL,[2],0.33%
same,ERYTHROCYTE COUNT,[2],5.41 x10E6/uL
same,HEMATOCRIT,[2],36.17%
same,HEMOGLOBIN,[2],13.9 G/DL
same,LEUKOCYTE COUNT,[2],10.08 x10E3/uL
same,LYMPHOCYTE,[2],92.17%
same,MEAN CORPUSCULAR HEMOGLOBIN,[2],25.73 pg
same,MEAN CORPUSCULAR HEMOGLOBIN CONCENTRATION,[2],38.45 G/DL
same,MEAN CORPUSCULAR VOLUME,[2],66.97 fL
same,MONOCYTE,[2],1.83%
same,NEUTROPHIL,[2],5.67%
same,NUCLEATED RED BLOOD CELLS,[2],0.33 /100WBC
same,PLATELET COUNT,[2],1122.33 x10E3/uL
same,ALANINE AMINOTRANSFERASE,[2],52.83 u/L
same,ALBUMIN,[2],4.12 G/DL
same,ALKALINE PHOSPHATASE,[2],367.33 u/L
same,ASPARTATE AMINOTRANSFERASE,[2],88 u/L
same,BLOOD UREA NITROGEN,[2],12.67 mg/dL
same,CARBON DIOXIDE,[2],33.67 mmol/L
same,CHLORIDE,[2],97 MEQ/L
same,CHOLESTEROL,[2],67.5 mg/dL
same,CREATINE PHOSPHOKINASE,[2],358.67 u/L
same,CREATININE,[2],0.14 mg/dL
same,GLUCOSE,[2],152.33 mg/dL
same,LACTATE DEHYDROGENASE,[2],180 u/L
same,LIPASE,[2],10.5 u/L
same,PHOSPHORUS,[2],10.63 mg/dL
same,POTASSIUM,[2],5.99 MEQ/L
same,SODIUM,[2],141.85 MEQ/L
same,TOTAL BILIRUBIN,[2],0.2 mg/dL
same,TOTAL PROTEIN,[2],6.18 G/DL
same,URIC ACID,[2],0.52 mg/dL
same,ABSOLUTE BASOPHIL,[3],0 CELLS/uL
same,ABSOLUTE EOSINOPHIL,[3],0 CELLS/uL
same,ABSOLUTE LYMPHOCYTE,[3],14976.33 CELLS/uL
same,ABSOLUTE MONOCYTE,[3],50 CELLS/uL
same,ABSOLUTE SEGMENTED NEUTROPHIL,[3],1373.67 CELLS/uL
same,BASOPHIL,[3],0%
same,EOSINOPHIL,[3],0%
same,ERYTHROCYTE COUNT,[3],5.24 x10E6/uL
same,HEMATOCRIT,[3],34.53%
same,HEMOGLOBIN,[3],13.33 G/DL
same,LEUKOCYTE COUNT,[3],16.4 x10E3/uL
same,LYMPHOCYTE,[3],91.33%
same,MEAN CORPUSCULAR HEMOGLOBIN,[3],25.5 pg
same,MEAN CORPUSCULAR HEMOGLOBIN CONCENTRATION,[3],38.67 G/DL
same,MEAN CORPUSCULAR VOLUME,[3],65.87 fL
same,MONOCYTE,[3],0.33%
same,NEUTROPHIL,[3],8.33%
same,NUCLEATED RED BLOOD CELLS,[3],0.33 /100WBC
same,PLATELET COUNT,[3],1013.33 x10E3/uL
same,ALANINE AMINOTRANSFERASE,[3],52.67 u/L
same,ALBUMIN,[3],3.97 G/DL
same,ALKALINE PHOSPHATASE,[3],324 u/L
same,ASPARTATE AMINOTRANSFERASE,[3],77 u/L
same,BLOOD UREA NITROGEN,[3],13 mg/dL
same,CARBON DIOXIDE,[3],30 mmol/L
same,CHLORIDE,[3],98.33 MEQ/L
same,CHOLESTEROL,[3],80.67 mg/dL
same,CREATINE PHOSPHOKINASE,[3],196 u/L
same,CREATININE,[3],0.11 mg/dL
same,GLUCOSE,[3],165 mg/dL
same,LACTATE DEHYDROGENASE,[3],154 u/L
same,LIPASE,[3],9.33 u/L
same,PHOSPHORUS,[3],11.37 mg/dL
same,POTASSIUM,[3],6.42 MEQ/L
same,SODIUM,[3],143.1 MEQ/L
same,TOTAL BILIRUBIN,[3],0.2 mg/dL
same,TOTAL PROTEIN,[3],5.87 G/DL
same,URIC ACID,[3],0.83 mg/dL
same,ABSOLUTE BASOPHIL,[4],0 CELLS/uL
same,ABSOLUTE EOSINOPHIL,[4],59.33 CELLS/uL
same,ABSOLUTE LYMPHOCYTE,[4],8956 CELLS/uL
same,ABSOLUTE MONOCYTE,[4],157 CELLS/uL
same,ABSOLUTE SEGMENTED NEUTROPHIL,[4],561 CELLS/uL
same,BASOPHIL,[4],0%
same,EOSINOPHIL,[4],0.67%
same,ERYTHROCYTE COUNT,[4],5.03 x10E6/uL
same,HEMATOCRIT,[4],33.47%
same,HEMOGLOBIN,[4],12.9 G/DL
same,LEUKOCYTE COUNT,[4],9.73 x10E3/uL
same,LYMPHOCYTE,[4],91.67%
same,MEAN CORPUSCULAR HEMOGLOBIN,[4],25.73 pg
same,MEAN CORPUSCULAR HEMOGLOBIN CONCENTRATION,[4],38.57 G/DL
same,MEAN CORPUSCULAR VOLUME,[4],66.63 fL
same,MONOCYTE,[4],1.67%
same,NEUTROPHIL,[4],6%
same,NUCLEATED RED BLOOD CELLS,[4],0 /100WBC
same,PLATELET COUNT,[4],1159 x10E3/uL
same,ALANINE AMINOTRANSFERASE,[4],55.33 u/L
same,ALBUMIN,[4],3.87 G/DL
same,ALKALINE PHOSPHATASE,[4],346 u/L
same,ASPARTATE AMINOTRANSFERASE,[4],85.33 u/L
same,BLOOD UREA NITROGEN,[4],13.33 mg/dL
same,CARBON DIOXIDE,[4],33.67 mmol/L
same,CHLORIDE,[4],98.33 MEQ/L
same,CHOLESTEROL,[4],66.33 mg/dL
same,CREATINE PHOSPHOKINASE,[4],375.33 u/L
same,CREATININE,[4],0.18 mg/dL
same,GLUCOSE,[4],143.67 mg/dL
same,LACTATE DEHYDROGENASE,[4],176.67 u/L
same,LIPASE,[4],12.33 u/L
same,PHOSPHORUS,[4],11.3 mg/dL
same,POTASSIUM,[4],5.91 MEQ/L
same,SODIUM,[4],142.67 MEQ/L
same,TOTAL BILIRUBIN,[4],0.13 mg/dL
same,TOTAL PROTEIN,[4],5.9 G/DL
same,URIC ACID,[4],0.37 mg/dL
